The target in the test is human recombinant ATX (Homo sapiens, UniProt Q13822). Nature of the test: Enzyme inhibition test (choline release from LPC, Amplex UltraRed fluorescence). The class given is biochemical. The following applies: 200 μM LPC substrate, 1 hr at room temperature, read-out: Experimental Example 1 human ATX IC50. As to the method:
[Enzyme Inhibition Test Method]
A mixture (10 μL) of substrate and a set of choline quantification reagents (200 μM LPC (1-Oleoyl-sn-glycero-3-phosphocholine Sigma #L1881), 25 μM Amplex UltraRed reagent (Invitrogen), 0.1 U/mL Peroxidase (TOYOBO), 1 U/mL Choline oxidase (TOYOBO)), prepared with assay buffer (50 mM Tris (pH 8.0), 140 mM NaCl, 5 mM KCl, 1 mM CaCl2, 1 mM MgCl2, 0.1% BSA (Albumin from bovine serum, SIGMA), 0.0025% Triton X-100), enzyme (0.4 ng/μL human recombinant ATX) (10 μL), compound-containing solution (100 nL) were dispensed to a 384-well plate, incubated at room temperature for 1 hr and the fluorescence (Ex. 525 nm/Em. 598 nm) was measured. As the standard, choline chloride was used. With a blank free of enzyme was taken as inhibitory rate 100%, and a control free of inhibitor as inhibitory rate 0%, the inhibitory rate was calculated, and IC50 value was calculated from the inhibitory activity percentage at each concentration.
For orientation: IC50 means the concentration at which inhibition is half-maximal. With `COc1ccc(-c2cnnc(COc3ccc(C(F)(F)F)cc3)c2)cc1[C@@H]1C[C@H]1C(=O)O` (relative stereo) [Example 3, trans-2-[2-methoxy-5-(6-{[4-(trifluoromethyl)phenoxy]methyl}pyridazin-4-yl)phenyl]cyclopropanecarboxylic Acid], the IC50 was determined as 0.035 µM.
`COc1ccc(-c2cnnc(CCc3ccc(OC(F)(F)F)cc3)c2)cc1[C@@H]1C[C@H]1C(=O)O` (relative stereo) [Example 4, trans-2-[2-methoxy-5-(6-{2-[4-(trifluoromethoxy)phenyl]ethyl}pyridazin-4-yl)phenyl]cyclopropanecarboxylic Acid]: the concentration for half-maximal inhibition (IC50) came out at 0.017 µM.
As for `C[C@@]1(C(=O)O)C[C@H]1[C@H]1CN(c2cncc(OC[C@H]3CC[C@H](C(F)(F)F)CC3)c2)CCO1` (relative stereo) [Example 20, trans-1-methyl-2-[(2S)-4-(5-{[trans-4-(trifluoromethyl)cyclohexyl]methoxy}pyridin-3-yl)morpholin-2-yl]cyclopropanecarboxylic Acid], the IC50 was determined as 0.002 µM.
With `O=C(O)/C=C/CC1COCCN1c1cncc(OCc2ccc(OC(F)(F)F)cc2)c1` (single isomer, unassigned) [Example 22-2], the IC50 came to 0.074 µM.
Regarding `COc1ccc(-c2cnnc(OC[C@H]3CC[C@H](C(F)(F)F)CC3)c2)nc1[C@H]1C[C@]1(C)C(=O)O` [Example 7-1, (1S,2S)-2-[3-methoxy-6-(6-{[trans-4-(trifluoromethyl)cyclohexyl]methoxy}pyridazin-4-yl)pyridin-2-yl]-1-methylcyclopropanecarboxylic Acid], the IC50 worked out at 0.001 µM.
On to `COc1ccc(-c2cnnc(OC[C@H]3CC[C@H](C(F)(F)F)CC3)c2)nc1[C@@H]1C[C@@]1(C)C(=O)O` [Example 7-2, (1R,2R)-2-[3-methoxy-6-(6-{[trans-4-(trifluoromethyl)cyclohexyl]methoxy}pyridazin-4-yl)pyridin-2-yl]-1-methylcyclopropanecarboxylic Acid], for which the IC50 amounted to 0.002 µM.
Consider `O=C(O)[C@H]1C[C@@H]1c1cc(-c2cnnc(OC[C@H]3CC[C@H](C(F)(F)F)CC3)c2)ccn1` [Example 10-1, (1S,2S)-2-[4-(6-{[trans-4-(trifluoromethyl)cyclohexyl]methoxy}pyridazin-4-yl)pyridin-2-yl]cyclopropanecarboxylic Acid], for which the IC50 came out at 0.001 µM.
Consider `O=C(O)[C@@H]1C[C@H]1c1cc(-c2cnnc(OC[C@H]3CC[C@H](C(F)(F)F)CC3)c2)ccn1` [Example 10-2, (1R,2R)-2-[4-(6-{[trans-4-(trifluoromethyl)cyclohexyl]methoxy}pyridazin-4-yl)pyridin-2-yl]cyclopropanecarboxylic Acid], for which the IC50 was found to be 0.003 µM.
As to `O=C(O)[C@H]1C[C@@H]1c1cc(-c2cncc(OCc3ccc(OC(F)(F)F)cc3)c2)ccn1` [Example 11-1, (1S,2S)-2-(5-{[4-(trifluoromethoxy)benzyl]oxy}-3,4′-bipyridin-2′-yl)cyclopropanecarboxylic Acid], the concentration for half-maximal inhibition (IC50) was 0.01 µM.
Take `O=C(O)[C@@H]1C[C@H]1c1cc(-c2cncc(OCc3ccc(OC(F)(F)F)cc3)c2)ccn1` [Example 11-2, (1R,2R)-2-(5-{[4-(trifluoromethoxy)benzyl]oxy}-3,4′-bipyridin-2′-yl)cyclopropanecarboxylic Acid]: the half-maximal inhibitory concentration (IC50) is 0.025 µM.
For `CC(C[C@H]1CN(c2cncc(OCc3ccc(OC(F)(F)F)cc3)c2)CCO1)C(=O)O` (stereo partly drawn) [Example 17, 2-methyl-3-[(2S)-4-(5-{[4-(trifluoromethoxy)benzyl]oxy}pyridin-3-yl)morpholin-2-yl]propanoic Acid] the value was 0.056 µM; for `O=C(O)CC[C@H]1CN(c2cncc(CCc3ccc(OC(F)(F)F)cc3)c2)CCO1` [Example 18-1, 3-[(2S)-4-(5-{2-[4-(trifluoromethoxy)phenyl]ethyl}pyridin-3-yl)morpholin-2-yl]propanoic Acid], 0.133 µM.
Turning to `O=C(O)COC[C@@H]1COCCN1c1cncc(OCc2ccc(OC(F)(F)F)cc2)c1` [Example 21, {[(3S)-4-(5-{[4-(trifluoromethoxy)benzyl]oxy}pyridin-3-yl)morpholin-3-yl]methoxy}acetic Acid], the IC50 was found to be 0.056 µM.
As for `O=C(O)COC[C@H]1CCCN1c1cncc(OCc2ccc(OC(F)(F)F)cc2)c1` [Example 24, {[(2R)-1-(5-{[4-(trifluoromethoxy)benzyl]oxy}pyridin-3-yl)pyrrolidin-2-yl]methoxy}acetic Acid], the IC50 was found to be 0.013 µM.
On to `COc1ccc(-c2cncc(/C=C\c3ccc(OC(F)(F)F)cc3)c2)nc1[C@H]1C[C@@H]1C(=O)O` [Example 27], for which the 50% inhibitory concentration (IC50) came out at 0.056 µM.
With `COc1ccc(-c2cncc(/C=C/c3ccc(OC(F)(F)F)cc3)c2)nc1[C@H]1C[C@@H]1C(=O)O` [Example 28], the half-inhibitory concentration (IC50) is 0.004 µM.
Turning to `CCOc1ccc(-c2cnnc(OCC3CCN(CC(F)(F)F)CC3)c2)cc1[C@H]1C[C@@H]1C(=O)O` [Example 30], the IC50 worked out at 0.002 µM.
Regarding `COc1ccc(-c2cncc(OCc3cccc(Cl)c3)c2)cc1C1CC1C(=O)O` (stereo not shown) [Example 32], the concentration for half-maximal inhibition (IC50) was found to be 0.026 µM.
The figure for `COc1ccc(-c2cncc(OCc3cccc(OC(F)(F)F)c3)c2)cc1C1CC1C(=O)O` (stereo not shown) [Example 33] is 0.057 µM.
For `COc1ccc(-c2cncc(OCc3ccccc3)c2)cc1C1CC1C(=O)O` (stereo not shown) [Example 34], the IC50 was 0.121 µM.
The figure for `O=C(O)c1ccc2c(c1)N(c1cncc(OC[C@H]3CC[C@H](C(F)(F)F)CC3)c1)CC2` [Example 35] is 0.001 µM; for `O=C(O)c1ccc2c(c1)CCN2c1cncc(OCc2ccc(OC(F)(F)F)cc2)c1` [Example 36] it is 0.006 µM.
Consider `O=C(O)c1ccc2c(c1)N(c1cncc(OCc3ccc(OC(F)(F)F)cc3)c1)CC2` [Example 37], for which the IC50 came out at 0.008 µM.
In the case of `O=C(O)c1cccc2c1CCN2c1cncc(OCc2ccc(OC(F)(F)F)cc2)c1` [Example 38], the IC50 came to 0.382 µM.
Turning to `O=C(O)c1ccc2c(c1)OCCN2c1cncc(OCc2ccc(OC(F)(F)F)cc2)c1` [Example 40], the IC50 turned out to be 0.012 µM.
Consider `O=C(O)c1ccc2c(c1)CCCN2c1cncc(OCc2ccc(OC(F)(F)F)cc2)c1` [Example 41], for which the IC50 came out at 0.031 µM.
As to `O=C(O)c1ccc(C2CN(c3cncc(OCc4ccc(OC(F)(F)F)cc4)c3)CCO2)cc1` (stereo not shown) [Example 42], the IC50 was found to be 0.008 µM.
Take `O=C(O)c1cccc(C2CN(c3cncc(OCc4ccc(OC(F)(F)F)cc4)c3)CCO2)c1` (stereo not shown) [Example 43]: the concentration for half-maximal inhibition (IC50) came to 0.013 µM.
The figure for `O=C(O)c1ccccc1C1CN(c2cncc(OCc3ccc(OC(F)(F)F)cc3)c2)CCO1` (stereo not shown) [Example 44] is 0.35 µM.
As for `COc1ccc(C2CN(c3cncc(OC[C@H]4CC[C@H](C(F)(F)F)CC4)c3)CCO2)cc1C(=O)O` (stereo partly shown) [Example 47], the half-inhibitory concentration (IC50) turned out to be 0.003 µM.
With `COc1ccc(C2CN(c3cncc(OCC4CCN(CC(F)(F)F)CC4)c3)CCO2)cc1C(=O)O` (stereo not shown) [Example 48], the concentration for half-maximal inhibition (IC50) amounted to 0.035 µM.
With `O=C(O)c1ccc(C2CN(c3cncc(OC[C@H]4CC[C@H](C(F)(F)F)CC4)c3)CCO2)cn1` (stereo partly shown) [Example 49], the half-maximal inhibitory concentration (IC50) worked out at 0.003 µM.
As to `O=C(O)c1ccc(C2CN(c3cncc(OC[C@H]4CC[C@H](C(F)(F)F)CC4)c3)CCO2)nc1` (stereo partly shown) [Example 50], the IC50 amounted to 0.01 µM.
With `O=C(O)c1ccnc(C2CN(c3cncc(OC[C@H]4CC[C@H](C(F)(F)F)CC4)c3)CCO2)c1` (stereo partly shown) [Example 51], the 50% inhibitory concentration (IC50) was 0.005 µM.

For the origin of these results see patent US11958812B2, “3, 5-disubstituted pyridine and 3, 5-disubstituted pyridazine derivatives and pharmaceutical use of same” (MITSUBISHI TANABE PHARMA CORPORATION, priority 2018, dated 2024).
